Experimental data taken from patent US8906852B2 (MethylGene Inc., priority 2010, dated 2014).

These molecules were tested against T1, VEGFR/KDR (Homo sapiens, UniProt P35968) (assay: VEGFR/KDR kinase inhibition, DELFIA assay). Conditions: ATP 0.6 uM (2x Km), enzyme 5 nM.
T1 construct: made in house; host or cells: Sf9 cells (Spodoptera frugiperda), baculovirus
Type: biochemical
Method in brief: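 DELFIA time-resolved fluorescence readout using Europium-tagged anti-phosphotyrosine antibody after EDTA stop. Kinase reaction on plate-bound poly(Glu4,Tyr) ran 10-30 min at 30° C with 5 nM enzyme and 0.6 uM ATP (2× Km), following 4 min on-ice pre-incubation with compound; IC50 over a concentration range.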

T1 sequence (P35968 806-1356): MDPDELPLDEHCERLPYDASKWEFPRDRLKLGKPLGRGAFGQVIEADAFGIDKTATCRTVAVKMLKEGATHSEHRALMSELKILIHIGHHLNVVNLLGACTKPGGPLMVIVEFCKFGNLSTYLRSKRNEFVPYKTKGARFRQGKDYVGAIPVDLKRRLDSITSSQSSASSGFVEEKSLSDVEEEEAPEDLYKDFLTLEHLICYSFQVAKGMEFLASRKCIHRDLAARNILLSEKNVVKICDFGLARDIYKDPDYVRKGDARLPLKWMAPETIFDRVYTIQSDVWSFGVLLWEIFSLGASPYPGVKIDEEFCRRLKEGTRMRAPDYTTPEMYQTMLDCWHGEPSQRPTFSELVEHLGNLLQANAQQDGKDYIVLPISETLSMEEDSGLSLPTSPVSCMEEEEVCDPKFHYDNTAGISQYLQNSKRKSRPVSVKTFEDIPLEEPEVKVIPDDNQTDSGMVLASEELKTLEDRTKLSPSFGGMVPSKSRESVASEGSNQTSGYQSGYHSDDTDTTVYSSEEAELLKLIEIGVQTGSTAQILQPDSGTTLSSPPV

Row | IC50 | SMILES
1 | < 50 nM | COCCN(Cc1ccc(-c2cc3nccc(Oc4ccc(NC(=O)NC5CC5)cc4F)c3s2)nc1)C(=O)COP(=O)(O)O [Compound 34, 2-(((6-(7-(4-(3-cyclopropylureido)-2-fluorophenoxy)thieno[3,2-b]pyridin-2-yl)pyridin-3-yl)methyl)(2-methoxyethyl)amino)-2-oxoethyl dihydrogen phosphate]
2 | < 50 nM | CN1CCN(C(=O)C2CCN(Cc3ccc(-c4cc5nccc(Oc6ccc(NC(=O)NC7CC7)cc6F)c5s4)nc3)CC2)CC1 [Compound 482, 1-cyclopropyl-3-(3-fluoro-4-(2-(5-((4-(4-methylpiperazine-1-carbonyl)piperidin-1-yl)methyl)pyridin-2-yl)thieno[3,2-b]pyridin-7-yloxy)phenyl)urea]
3 | < 50 nM | O=C(Nc1ccc(Oc2ccnc3cc(-c4ccc(CN5CCNC5=O)cn4)sc23)c(F)c1)NC1CC1 [Compound 143, 1-cyclopropyl-3-(3-fluoro-4-(2-(5-((2-oxoimidazolidin-1-yl)methyl)pyridin-2-yl)thieno[3,2-b]pyridin-7-yloxy)phenyl)urea]
4 | < 50 nM | O=C(Nc1ccc(Oc2ccnc3cc(-c4ccc(C(=O)N5CCOC(C(=O)O)C5)cn4)sc23)c(F)c1)NC1CC1 (centres unmarked) [Compound 241, 4-(6-(7-(4-(3-cyclopropylureido)-2-fluorophenoxy)thieno[3,2-b]-pyridin-2-yl)nicotinoyl)morpholine-2-carboxylic acid]
5 | 50 to 100 nM | CCNC(=O)N(CCOC)CCn1cc(-c2cc3nccc(Oc4ccc(NC(=O)NC5CC5)cc4F)c3s2)cn1 [Compound 255, N-(2-(4-(7-(4-(3-cyclopropylureido)-2-fluorophenoxy)thieno[3,2-b]-pyridine-2-yl)-1H-pyrazol-1-yl)ethyl)-N-(1-ethyl)-N-[3-(2-methoxyethyl)]urea]
6 | < 50 nM | O=C(O)CC[C@@H](O)C(=O)N1CCN(Cc2ccc(-c3cc4nccc(Oc5ccc(NC(=O)NC6CC6)cc5F)c4s3)nc2)CC1 [Compound 546]
7 | < 50 nM | O=C(Nc1ccc(Oc2ccnc3cc(-c4ccc(CN5C[C@@H]6C[C@H]5CN6)cn4)sc23)c(F)c1)NC1CC1 [Compound 73]
8 | < 50 nM | O=C(Nc1ccc(Oc2ccnc3cc(-c4ccc(C(=O)N5CCNCC5)cn4)sc23)c(F)c1)NC1CC1 [Compound 550]
9 | < 50 nM | CC(C)(CN1CCN(C(=O)c2ccc(-c3cc4nccc(Oc5ccc(NC(=O)NC6CC6)cc5F)c4s3)nc2)CC1)C(=O)O [Compound 576]
10 | < 50 nM | O=C(Nc1ccc(Oc2ccnc3cc(-c4ccc(CN5CCC[C@H]5C(=O)O)cn4)sc23)c(F)c1)NC1CC1 [Compound 173, (S)-1-((6-(7-(4-(3-cyclopropylureido)-2-fluorophenoxy)thieno[3,2-b]pyridin-2-yl)pyridin-3-yl)methyl)pyrrolidine-2-carboxylic acid]
11 | < 50 nM | CN1CCN(C(=O)C2CCCN(Cc3ccc(-c4cc5nccc(Oc6ccc(NC(=O)NC7CC7)cc6F)c5s4)nc3)C2)CC1 (centres unmarked) [Compound 493, 1-cyclopropyl-3-(3-fluoro-4-(2-(5-((3-(4-methylpiperazine-1-carbonyl)piperidin-1-yl)methyl)pyridin-2-yl)thieno[3,2-b]pyridin-7-yloxy)phenyl)urea]
12 | < 50 nM | CN1CCN(C(=O)[C@@H]2CCCN2Cc2ccc(-c3cc4nccc(Oc5ccc(NC(=O)NC6CC6)cc5F)c4s3)nc2)CC1 [Compound 488, (S)-1-cyclopropyl-3-(3-fluoro-4-(2-(5-((2-(4-methylpiperazine-1-carbonyl)pyrrolidin-1-yl)methyl)pyridin-2-yl)thieno[3,2-b]pyridin-7-yloxy)phenyl)urea]
13 | < 50 nM | O=C(Nc1ccc(Oc2ccnc3cc(-c4ccc(CN5CCNCC5=O)cn4)sc23)c(F)c1)NC1CC1 [Compound 72]
14 | < 50 nM | C[C@H]1CN(Cc2ccc(-c3cc4nccc(Oc5ccc(NC(=O)NC6CC6)cc5F)c4s3)nc2)CCN1C(=O)CO [Compound 529, (S)-1-cyclopropyl-3-(3-fluoro-4-(2-(5-((4-(2-hydroxyacetyl)-3-methylpiperazin-1-yl)methyl)pyridin-2-yl)thieno[3,2-b]pyridin-7-yloxy)phenyl)urea]
15 | < 50 nM | O=C(O)CCN1CCN(Cc2ccc(-c3cc4nccc(Oc5ccc(NC(=O)NC6CC6)cc5F)c4s3)nc2)CC1 [Compound 70, 3-(4-((6-(7-(4-(3-cyclopropylureido)-2-fluorophenoxy)thieno[3,2-b]pyridin-2-yl)pyridin-3-yl)methyl)piperazin-1-yl)propanoic acid]
16 | < 50 nM | CCNC(=O)N(CCOC)Cc1ccc(-c2cc3nccc(Oc4ccc(NC(=O)NC5CC5)c(F)c4F)c3s2)nc1 [Compound 35, N-[3-((6-(7-(4-(3-cyclopropylureido)-2,3-difluorophenoxy)thieno[3,2-b]pyridin-2-yl)pyridin-3-yl)methyl)]-N-(1-ethyl)-N-(2-methoxyethyl)urea]
17 | < 50 nM | O=C(Nc1ccc(Oc2ccnc3cc(C(=O)N4CCC4)sc23)c(F)c1)NC1CC1 [Compound 446]
18 | < 50 nM | O=C(Nc1ccc(Oc2ccnc3cc(-c4cn(CC(=O)N5CCNCC5)nn4)sc23)c(F)c1)NC1CC1 [Compound 389, 1-Cyclopropyl-3-(3-fluoro-4-(2-(1-(2-oxo-2-(piperazin-1-yl)ethyl)-1H-1,2,3-triazol-4-yl)thieno[3,2-b]pyridin-7-yloxy)phenyl)urea]
19 | < 50 nM | O=C(O)CCN1CCN(C(=O)c2ccc(-c3cc4nccc(Oc5ccc(NC(=O)NC6CC6)cc5F)c4s3)nc2)CC1 [Compound 239, 3-(4-(6-(7-(4-(3-cyclopropylureido)-2-fluorophenoxy)thieno[3,2-b]pyridin-2-yl)nicotinoyl)piperazin-1-yl)propanoic acid tetraacetate]
20 | < 50 nM | N[C@H]1CCN(Cc2ccc(-c3cc4nccc(Oc5ccc(NC(=O)NC6CC6)cc5F)c4s3)nc2)C1=O [Compound 108, (S)-1-(4-(2-(5-((3-amino-2-oxopyrrolidin-1-yl)methyl)pyridin-2-yl)thieno[3,2-b]pyridin-7-yloxy)-3-fluorophenyl)-3-cyclopropylurea]
21 | < 50 nM | NCC(=O)N1CCN(Cc2ccc(-c3cc4nccc(Oc5ccc(NC(=O)NC6CC6)cc5F)c4s3)nc2)CC1 [Compound 77, 1-(4-(2-(5-((4-(2-aminoacetyl)piperazin-1-yl)methyl)pyridin-2-yl)thieno[3,2-b]-pyridin-7-yloxy)-3-fluorophenyl)-3-cyclopropylurea]
22 | 100 to 250 nM | O=C(Nc1ccc(Oc2ccnc3cc(C#CCN4CCOCC4)sc23)c(F)c1)Nc1ccc(F)cc1F [Compound 119, 1-(2,4-difluorophenyl)-3-(3-fluoro-4-(2-(3-morpholinoprop-1-ynyl)thieno[3,2-b]pyridin-7-yloxy)phenyl)urea]
23 | < 50 nM | O=C(Nc1ccc(Oc2ccnc3cc(-c4ccc(CN5CCN(C(=O)CCO)CC5)cn4)sc23)c(F)c1)NC1CC1 [Compound 545]
24 | < 50 nM | CN(C)CC(=O)N1CCN(Cc2ccc(-c3cc4nccc(Oc5ccc(NC(=O)NC6CC6)cc5F)c4s3)nc2)CC1 [Compound 538]
25 | < 50 nM | CS(=O)(=O)NC1CCN(Cc2ccc(-c3cc4nccc(Oc5ccc(NC(=O)NC6CC6)cc5F)c4s3)nc2)CC1 [Compound 350]
26 | ≥ 250 nM | CN1CCN(CCNC(=O)c2cc3nccc(Oc4ccc(NC(=O)NC5CC5)cc4F)c3s2)CC1 [Compound 440]
